Results from PubChem BioAssay (NCI).
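Exposure lasted 48 hours, with cells grown in 96-well plates and compounds tested at five concentrations. GI50 = concentration required for 50% inhibition of growth. TGI: concentration producing complete growth inhibition.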

Assays:
Experiment in all cases: inhibition of tumour cell growth, NCI panel, 48 h; in the data active means GI50 below about 0.43 µM; inactive means the rest
UACC-257 melanoma = tested on: UACC-257 melanoma
NCI/ADR-RES ovarian = tested on: NCI/ADR-RES ovarian
BT-549 breast = tested on: BT-549 breast
HOP-92 NSCLC = tested on: HOP-92 NSCLC
SR leukemia = tested on: SR leukemia
OVCAR-8 ovarian = tested on: OVCAR-8 ovarian
MOLT-4 leukemia = tested on: MOLT-4 leukemia
PC-3 prostate = tested on: PC-3 prostate
DU-145 prostate = tested on: DU-145 prostate
MDA-MB-231 breast = tested on: MDA-MB-231 breast
EKVX NSCLC = tested on: EKVX NSCLC
CCRF-CEM leukemia = tested on: CCRF-CEM leukemia
HCC-2998 colon = tested on: HCC-2998 colon
SK-MEL-28 melanoma = tested on: SK-MEL-28 melanoma
TK-10 renal = tested on: TK-10 renal
NCI-H522 lung = tested on: NCI-H522 lung
RPMI-8226 leukemia = tested on: RPMI-8226 leukemia
SNB-19 CNS = tested on: SNB-19 CNS
U251 CNS = tested on: U251 CNS
A498 renal = tested on: A498 renal
SK-OV-3 ovarian = tested on: SK-OV-3 ovarian
SW-620 colon = tested on: SW-620 colon
SK-MEL-2 melanoma = tested on: SK-MEL-2 melanoma
HCT-116 colon = tested on: HCT-116 colon
OVCAR-5 ovarian = tested on: OVCAR-5 ovarian
CAKI-1 renal = tested on: CAKI-1 renal
T-47D breast = tested on: T-47D breast
SK-MEL-5 melanoma = tested on: SK-MEL-5 melanoma
NCI-H460 lung = tested on: NCI-H460 lung
MALME-3M melanoma = tested on: MALME-3M melanoma
OVCAR-4 ovarian = tested on: OVCAR-4 ovarian
KM12 colon = tested on: KM12 colon
SF-539 CNS = tested on: SF-539 CNS
HT29 colon = tested on: HT29 colon
HS 578T breast = tested on: HS 578T breast
SNB-75 CNS = tested on: SNB-75 CNS
HL-60(TB) leukemia = tested on: HL-60(TB) leukemia
A549 NSCLC = tested on: A549 NSCLC
ACHN renal = tested on: ACHN renal
HCT-15 colon = tested on: HCT-15 colon
K-562 leukemia = tested on: K-562 leukemia
HOP-62 NSCLC = tested on: HOP-62 NSCLC
SF-268 CNS = tested on: SF-268 CNS
IGROV1 ovarian = tested on: IGROV1 ovarian
SN12C renal = tested on: SN12C renal
SF-295 CNS = tested on: SF-295 CNS
OVCAR-3 ovarian = tested on: OVCAR-3 ovarian
MCF7 breast = tested on: MCF7 breast
NCI-H226 lung = tested on: NCI-H226 lung
786-0 renal = tested on: 786-0 renal
UACC-62 melanoma = tested on: UACC-62 melanoma
COLO 205 colon = tested on: COLO 205 colon
MDA-MB-435 = tested on: MDA-MB-435

Fc1ccc(-c2cc3nc(C(Cl)Cl)nc(-c4ccc(Cl)cc4)n3n2)cc1
5.36 µM: TGI (HT29 colon)
4.36 µM: TGI (U251 CNS)
4.53 µM: TGI (A549 NSCLC)
9.71 µM: TGI (SF-295 CNS)
14.1 µM: TGI (EKVX NSCLC)
4.5 µM: TGI (OVCAR-3 ovarian)
3.14 µM: TGI (HCC-2998 colon)
5.84 µM: TGI (DU-145 prostate)
4.03 µM: TGI (ACHN renal)
53.1 µM: TGI (A498 renal)
4.05 µM: TGI (COLO 205 colon)
> 100 µM: TGI (UACC-257 melanoma) | TGI (NCI/ADR-RES ovarian) | TGI (BT-549 breast) | TGI (HOP-92 NSCLC) | TGI (SR leukemia) | TGI (OVCAR-8 ovarian) | TGI (MOLT-4 leukemia) | TGI (PC-3 prostate) | TGI (MDA-MB-231 breast) | TGI (CCRF-CEM leukemia) | TGI (SK-MEL-28 melanoma) | TGI (TK-10 renal) | TGI (NCI-H522 lung) | TGI (RPMI-8226 leukemia) | TGI (SNB-19 CNS) | TGI (SK-OV-3 ovarian) | TGI (SW-620 colon) | TGI (SK-MEL-2 melanoma) | TGI (HCT-116 colon) | TGI (OVCAR-5 ovarian) | TGI (CAKI-1 renal) | TGI (T-47D breast) | TGI (SK-MEL-5 melanoma) | TGI (MALME-3M melanoma) | TGI (OVCAR-4 ovarian) | TGI (KM12 colon) | TGI (SF-539 CNS) | TGI (HS 578T breast) | TGI (SNB-75 CNS) | TGI (HL-60(TB) leukemia) | TGI (HCT-15 colon) | TGI (K-562 leukemia) | TGI (HOP-62 NSCLC) | TGI (SF-268 CNS) | TGI (IGROV1 ovarian) | TGI (SN12C renal) | TGI (MCF7 breast) | TGI (NCI-H226 lung) | TGI (786-0 renal) | TGI (UACC-62 melanoma) | TGI (MDA-MB-435)
inactive: GI50 (UACC-257 melanoma) > 100 µM | GI50 (NCI/ADR-RES ovarian) 3.32 µM | GI50 (BT-549 breast) 94.7 µM | GI50 (HOP-92 NSCLC) 4.66 µM | GI50 (SR leukemia) 3.01 µM | GI50 (OVCAR-8 ovarian) 4.03 µM | GI50 (MOLT-4 leukemia) 4.25 µM | GI50 (PC-3 prostate) 3.96 µM | GI50 (DU-145 prostate) 1.91 µM | GI50 (MDA-MB-231 breast) 4.08 µM | GI50 (EKVX NSCLC) 2.94 µM | GI50 (CCRF-CEM leukemia) > 100 µM | GI50 (HCC-2998 colon) 1.54 µM | GI50 (SK-MEL-28 melanoma) 8.28 µM | GI50 (TK-10 renal) 7.6 µM | GI50 (NCI-H522 lung) 3.72 µM | GI50 (RPMI-8226 leukemia) 4.55 µM | GI50 (SNB-19 CNS) 2.96 µM | GI50 (U251 CNS) 1.79 µM | GI50 (A498 renal) 4.95 µM | GI50 (SK-OV-3 ovarian) 3.23 µM | GI50 (SW-620 colon) 2.91 µM | GI50 (SK-MEL-2 melanoma) > 100 µM | GI50 (HCT-116 colon) 3.3 µM | GI50 (OVCAR-5 ovarian) 3.92 µM | GI50 (CAKI-1 renal) 2.96 µM | GI50 (T-47D breast) 3.91 µM | GI50 (SK-MEL-5 melanoma) > 100 µM | GI50 (NCI-H460 lung) 1.76 µM | GI50 (MALME-3M melanoma) > 100 µM | GI50 (OVCAR-4 ovarian) 3.11 µM | GI50 (KM12 colon) 3.01 µM | GI50 (SF-539 CNS) 11.3 µM | GI50 (HT29 colon) 1.66 µM | GI50 (HS 578T breast) > 100 µM | GI50 (SNB-75 CNS) > 100 µM | GI50 (HL-60(TB) leukemia) 2 µM | GI50 (A549 NSCLC) 1.8 µM | GI50 (ACHN renal) 1.6 µM | GI50 (HCT-15 colon) 2.5 µM | GI50 (K-562 leukemia) 4.39 µM | GI50 (HOP-62 NSCLC) 2.53 µM | GI50 (SF-268 CNS) 5.09 µM | GI50 (IGROV1 ovarian) > 100 µM | GI50 (SN12C renal) > 100 µM | GI50 (SF-295 CNS) 3.04 µM | GI50 (OVCAR-3 ovarian) 2.02 µM | GI50 (MCF7 breast) 2.45 µM | GI50 (NCI-H226 lung) > 100 µM | GI50 (786-0 renal) 23.5 µM | GI50 (UACC-62 melanoma) > 100 µM | GI50 (COLO 205 colon) 1.84 µM | GI50 (MDA-MB-435) 6.6 µM
4.69 µM: TGI (NCI-H460 lung)
